These results are taken from ChEMBL document CHEMBL5724914, “Linking interpersonal differences in gut microbiota composition and drug biotransformation activity” (2024).

Structures are written as SMILES.

Data set [1] can be described thus: The drug is tested on Z-006 corresponding to mouse gut metagenome with ENA study accession number: PRJEB37062 and ENA sample accession number: ERS12561806 for biotransformation under anaerobic condition. The drug concentrations were measured over 9 timepoints collected between 0 and 24 hours of incubation by liquid-chromatography-coupled mass spectrometry (LC–MS). The note with it: 2 µM.

For data set [2] the following is noted: human gut metagenome, 24 h, 2 µM.
For data set [3] the following is noted: human gut metagenome, 24 h, 2 µM. The source holds these as a separate data set.
For data set [4] the following is noted: human gut metagenome, 24 h, 2 µM. This is another data set of the same source.
The nature of data set [5]: The drug is tested on WLS-370 corresponding to human gut metagenome with ENA study accession number: PRJEB37062 and ENA sample accession number: ERS12561793 for biotransformation under anaerobic condition. The drug concentrations were measured over 9 timepoints collected between 0 and 24 hours of incubation by liquid-chromatography-coupled mass spectrometry (LC–MS). The note with it: 2 µM.

A short description of data set [6]: The drug is tested on Z-005 corresponding to metagenome with ENA study accession number: PRJEB37062 and ENA sample accession number: ERS12561805 for biotransformation under anaerobic condition. The drug concentrations were measured over 9 timepoints collected between 0 and 24 hours of incubation by liquid-chromatography-coupled mass spectrometry (LC–MS). The note with it: 2 µM.

Data set [7] can be described thus: The drug is tested on Z-027 corresponding to metagenome with ENA study accession number: PRJEB37062 and ENA sample accession number: ERS12561826 for biotransformation under anaerobic condition. The drug concentrations were measured over 9 timepoints collected between 0 and 24 hours of incubation by liquid-chromatography-coupled mass spectrometry (LC–MS). The note with it: 2 µM.

Data set [8] can be described thus: The drug is tested on Z-009 corresponding to pig gut metagenome with ENA study accession number: PRJEB37062 and ENA sample accession number: ERS12561809 for biotransformation under anaerobic condition. The drug concentrations were measured over 9 timepoints collected between 0 and 24 hours of incubation by liquid-chromatography-coupled mass spectrometry (LC–MS). As to conditions: 2 µM.

For data set [9] the following is noted: human gut metagenome, 24 h, 2 µM. This is another data set of the same source.
The nature of data set [10]: The drug is tested on Z-010 corresponding to metagenome with ENA study accession number: PRJEB37062 and ENA sample accession number: ERS12561810 for biotransformation under anaerobic condition. The drug concentrations were measured over 9 timepoints collected between 0 and 24 hours of incubation by liquid-chromatography-coupled mass spectrometry (LC–MS). As to conditions: 2 µM.

For data set [11] the following is noted: human gut metagenome, 24 h, 2 µM. This is another data set of the same source.
For data set [12] the following is noted: human gut metagenome, 24 h, 2 µM. This is another data set of the same source.
A short description of data set [13]: The drug is tested on WLS-073 corresponding to human gut metagenome with ENA study accession number: PRJEB37062 and ENA sample accession number: ERS12561749 for biotransformation under anaerobic condition. The drug concentrations were measured over 9 timepoints collected between 0 and 24 hours of incubation by liquid-chromatography-coupled mass spectrometry (LC–MS). The note with it: 2 µM.

The conditions of data set [14]: human gut metagenome, 24 h, 2 µM. The source holds these as a separate data set.
A short description of data set [15]: The drug is tested on Z-013 corresponding to rabbit gut metagenome with ENA study accession number: PRJEB37062 and ENA sample accession number: ERS12561813 for biotransformation under anaerobic condition. The drug concentrations were measured over 9 timepoints collected between 0 and 24 hours of incubation by liquid-chromatography-coupled mass spectrometry (LC–MS). As to conditions: 2 µM.

For data set [16] the following is noted: human gut metagenome, 24 h, 2 µM. The source holds these as a separate data set.
The conditions of data set [17]: human gut metagenome, 24 h, 2 µM. This is another data set of the same source.
For data set [18] the following is noted: human gut metagenome, 24 h, 2 µM. The source holds these as a separate data set.
Data set [19] can be described thus: The drug is tested on WLS-220 corresponding to human gut metagenome with ENA study accession number: PRJEB37062 and ENA sample accession number: ERS12561769 for biotransformation under anaerobic condition. The drug concentrations were measured over 9 timepoints collected between 0 and 24 hours of incubation by liquid-chromatography-coupled mass spectrometry (LC–MS). As to conditions: 2 µM.

Data set [20] in a line: The drug is tested on Z-011 corresponding to mouse gut metagenome with ENA study accession number: PRJEB37062 and ENA sample accession number: ERS12561811 for biotransformation under anaerobic condition. The drug concentrations were measured over 9 timepoints collected between 0 and 24 hours of incubation by liquid-chromatography-coupled mass spectrometry (LC–MS). The note with it: 2 µM.
Also: call rule not given here.

For `Nc1ccc(/N=N/c2ccccc2)c(N)n1` [PHENAZOPYRIDINE], the “Bacterial Biotransformation” value in data set [1], in [2], in data set [3], in data set [4], in [5] and in data set [6] was “Compound metabolized” each time. Moreover, the “Bacterial Biotransformation” value in data set [7], in data set [8], in data set [9], in [10], in [11] and in data set [12] was “Compound metabolized” each time. Moreover, the “Bacterial Biotransformation” value in data set [13] was “Compound metabolized”; in [14] it was “Compound metabolized”; in [15], “Compound metabolized”; in data set [16] it was “Compound NOT metabolized”; in data set [17], “Compound metabolized”; in data set [18] it was “Compound metabolized”. Besides, the “Bacterial Biotransformation” value in [19] and in data set [20] was “Compound metabolized” in each case.
Regarding `CC(C(=O)O)c1ccc2c(c1)Cc1cccnc1O2` (stereo not given) [PRANOPROFEN], the “Bacterial Biotransformation” value in data set [1], in data set [2], in data set [3], in data set [4], in data set [5] and in [6] was “Compound metabolized” throughout. Moreover, the “Bacterial Biotransformation” value in data set [7], in data set [8], in [9], in data set [10], in data set [11] and in data set [12] was “Compound metabolized” in each case. Further, the “Bacterial Biotransformation” value in data set [13], in data set [14], in data set [15], in data set [16], in data set [17] and in data set [18] was “Compound metabolized” throughout. Besides, the “Bacterial Biotransformation” value in data set [19] and in [20] was “Compound metabolized” each time.
Take `CCc1nc(N)nc(N)c1-c1ccc(Cl)cc1` [PYRIMETHAMINE]: the “Bacterial Biotransformation” value was “Compound NOT metabolized” in data set [1]; “Compound NOT metabolized” in [2]; “Compound metabolized” in data set [3]; “Compound NOT metabolized” in data set [4]; “Compound NOT metabolized” in [5]; “Compound NOT metabolized” in [6]. For the same compound, the “Bacterial Biotransformation” value in [7], in [8], in data set [9], in data set [10], in data set [11] and in data set [12] was “Compound NOT metabolized” each time. Also, the “Bacterial Biotransformation” value was “Compound NOT metabolized” in data set [13]; “Compound metabolized” in data set [14]; “Compound NOT metabolized” in data set [15]; “Compound NOT metabolized” in [16]; “Compound NOT metabolized” in [17]; “Compound NOT metabolized” in [18]. Also, the “Bacterial Biotransformation” value in data set [19] and in data set [20] was “Compound NOT metabolized” throughout.
For the compound `COc1ccccc1OCC(O)CN1CCN(CC(=O)Nc2c(C)cccc2C)CC1` (stereo not given) [RANOLAZINE], the “Bacterial Biotransformation” value in data set [1], in data set [2], in [3], in [4], in data set [5] and in [6] was “Compound NOT metabolized” throughout. Further, the “Bacterial Biotransformation” value in data set [7], in data set [8], in data set [9], in data set [10], in data set [11] and in data set [12] was “Compound NOT metabolized” each time. In addition, the “Bacterial Biotransformation” value in data set [13], in [14], in data set [15], in [16], in data set [17] and in [18] was “Compound NOT metabolized” throughout. The “Bacterial Biotransformation” value in data set [19] and in data set [20] was “Compound NOT metabolized” throughout.
For `CN(C)CCc1c[nH]c2ccc(Cn3cncn3)cc12.O=C(O)c1ccccc1` [RIZATRIPTAN BENZOATE], the “Bacterial Biotransformation” value in data set [1], in [2], in data set [3], in data set [4], in data set [5] and in [6] was “Compound NOT metabolized” throughout. In addition, the “Bacterial Biotransformation” value in data set [7], in [8], in [9], in data set [10], in data set [11] and in data set [12] was “Compound NOT metabolized” each time. Moreover, the “Bacterial Biotransformation” value in [13], in data set [14], in [15], in data set [16], in data set [17] and in data set [18] was “Compound NOT metabolized” each time. Also, the “Bacterial Biotransformation” value in data set [19] and in data set [20] was “Compound NOT metabolized” each time.
Consider `CCCc1nn(C)c2c(=O)[nH]c(-c3cc(S(=O)(=O)N4CCN(C)CC4)ccc3OCC)nc12.O=C(O)CC(O)(CC(=O)O)C(=O)O` [SILDENAFIL CITRATE], for which the “Bacterial Biotransformation” value is listed as “Compound NOT metabolized” in [1]; “Compound NOT metabolized” in [2]; “Compound metabolized” in data set [3]; “Compound metabolized” in data set [4]; “Compound NOT metabolized” in data set [5]; “Compound NOT metabolized” in [6]. Besides, the “Bacterial Biotransformation” value in [7] is reported as “Compound NOT metabolized”; in [8] it was “Compound NOT metabolized”; in [9], “Compound metabolized”; in [10] it was “Compound NOT metabolized”; in [11] it was “Compound NOT metabolized”; in data set [12] it was “Compound NOT metabolized”. Also, the “Bacterial Biotransformation” value in [13] is reported as “Compound NOT metabolized”; in [14], “Compound metabolized”; in [15], “Compound NOT metabolized”; in data set [16] it was “Compound NOT metabolized”; in [17], “Compound metabolized”; in [18], “Compound NOT metabolized”. Besides, the “Bacterial Biotransformation” value in [19] and in data set [20] was “Compound NOT metabolized” in each case.
